In BigSolDB 2.1:

OC[C@@H](O)C(O)[C@@H](O)CO (some centres not stated)
Details | solubility (mole fraction)
in DMF, 293.21 K | 0.0411
in DMF, 298.29 K | 0.0504
in DMF, 303.26 K | 0.0609
in DMF, 308.24 K | 0.0736
in DMF, 313.22 K | 0.0895
in DMF, 318.32 K | 0.11
in DMF, 323.2 K | 0.134
in DMF, 328.24 K | 0.166
in DMF, 333.27 K | 0.204
in acetone, 293.29 K | 0.000203
in acetone, 298.18 K | 0.00024
in acetone, 303.26 K | 0.000304
in acetone, 308.22 K | 0.000401
in acetone, 313.2 K | 0.000543
in acetone, 318.23 K | 0.000743
in acetone, 323.2 K | 0.00101
in ethanol, 293.23 K | 0.00173
in ethanol, 298.28 K | 0.00242
in ethanol, 303.17 K | 0.00309
in ethanol, 308.21 K | 0.00397
in ethanol, 313.19 K | 0.00522
in ethanol, 318.29 K | 0.00709
in ethanol, 323.24 K | 0.00966
in ethanol, 328.19 K | 0.0132
in ethanol, 333.22 K | 0.0179
in isopropanol, 293.28 K | 0.00113
in isopropanol, 298.2 K | 0.00154
in isopropanol, 303.23 K | 0.00212
in isopropanol, 308.19 K | 0.00268
in isopropanol, 313.32 K | 0.00342
in isopropanol, 318.21 K | 0.00443
in isopropanol, 323.16 K | 0.00588
in isopropanol, 328.21 K | 0.00798
in isopropanol, 333.27 K | 0.0109
in isopropanol, 338.19 K | 0.0146
in isopropanol, 343.23 K | 0.0194
in n-butanol, 293.16 K | 0.00113
in n-butanol, 298.21 K | 0.00154
in n-butanol, 303.26 K | 0.00212
in n-butanol, 308.27 K | 0.00268
in n-butanol, 313.22 K | 0.00342
in n-butanol, 318.16 K | 0.00443
in n-butanol, 323.23 K | 0.00588
in n-butanol, 328.32 K | 0.00798
in n-butanol, 333.24 K | 0.0109
in n-butanol, 338.22 K | 0.0146
in n-butanol, 343.76 K | 0.0194
in n-pentanol, 293.2 K | 0.000298
in n-pentanol, 298.18 K | 0.000483
in n-pentanol, 303.26 K | 0.000734
in n-pentanol, 308.29 K | 0.00101
in n-pentanol, 313.19 K | 0.00136
in n-pentanol, 318.24 K | 0.00188
in n-pentanol, 323.29 K | 0.00263
in n-pentanol, 328.23 K | 0.00364
in n-pentanol, 333.22 K | 0.005
in n-pentanol, 338.33 K | 0.00682
in n-pentanol, 343.24 K | 0.00903
in toluene, 293.26 K | 3.99e-05
in toluene, 298.28 K | 4.18e-05
in toluene, 303.19 K | 4.52e-05
in toluene, 308.17 K | 5e-05
in toluene, 313.23 K | 5.63e-05
in toluene, 318.33 K | 6.42e-05
in toluene, 323.21 K | 7.31e-05
in toluene, 328.22 K | 8.37e-05
in toluene, 333.3 K | 9.6e-05
in toluene, 338.16 K | 0.000109
in toluene, 343.19 K | 0.000124
in water, 293.28 K | 0.162
in water, 298.3 K | 0.18
in water, 303.17 K | 0.203
in water, 308.21 K | 0.232
in water, 313.29 K | 0.266
in water, 318.26 K | 0.302
in water, 323.25 K | 0.339
in water, 328.21 K | 0.377
